Measured values as given in patent publication US20190231705A1, “HIGH DRUG LOAD POLYMERIC NANOPARTICLE FORMULATIONS AND METHODS OF MAKING AND USING SAME” (Merck Sharp & Dohme Corp., priority 2018, published 2019).

Experiment: Solution content after 80K centrifugation
Assay type: physicochemical
Conditions: grazoprevir/HPMCAS-L nanoparticle suspension after 80k centrifugation

## C=C[C@@H]1C[C@]1(NC(=O)[C@@H]1C[C@@H]2CN1C(=O)[C@H](C(C)(C)C)NC(=O)O[C@@H]1C[C@H]1CCCCCc1nc3ccc(OC)cc3nc1O2)C(=O)NS(=O)(=O)C1CC1 [grazoprevir, (1aR,5S,8S, 10R,22aR)-N-[(1R,2S)-1-[(cyclopropylsulfonamido)-carbonyl]-2-ethenylcyclopropyl]-14-methoxy-5-(2-methylpropan-2-yl)-3,6-dioxo-1,1a,3,4,5,6,9,10,18,-19,20,21,22,22a-tetradecahydro-8H-7,10-methanocyclopropa[18,19][1,10,3,6]dioxadiaza-cyclononadecino[11,12-b]quinoxaline-8-carboxamide]
  % Grazoprevir in solution: 4.2%
